# In patent US20210196724A1, “BIARYL COMPOSITIONS AND METHODS FOR MODULATING A KINASE CASCADE” (Athenex, Inc., priority 2016, published 2021):
# Assays:
# Type in all cases: cell-based
# Conditions in all cases: 72 h
# SW579 cells = test: CellTiter-Glo cell viability, SW579
# Experimental: (§1) The cell viability of 50 cancer cell lines was studied after treatment with Compound 121. Inhibition concentration values at 50% (IC50) were determined using CellTiter-Glo luminescent cell viability assay after incubation with different compound concentrations. GI50 values were determined according to the examples described above. Each cell line was treated with Compound 121, a standard chemotherapy drug as a reference control, and culture medium as a vehicle control.
# (§2) All cells were cultured in media supplemented with 10-15% FBS at 37° C. in the presence of 5% CO2 and at 95% humidity. The culture medium was purchased from GIBCO or Sigma, USA. Cisplatin was chosen as the reference control and purchased from Hospira Australia Pty Ltd. The cell lines studied are presented in Table 5.
# (§3) Cells were harvested during a logarithmic growth period and cell number count was determined using Count-star. Cell concentrations were adjusted to 4.44×10^4 cells/mL with respective culture medium. 90 μL of cell suspensions were added to two 96-well plates (plates A and B) with a final cell density of 4×10^3 cells/well.
# (§4) 10 μL of culture medium was added to each well of plate A for TO reading. The plate was allowed to equilibrate at room temperature for approximately 30 min. 50 μL of CellTiter-Glo was added to each well and the contents were mixed for 5 min on an orbital shaker to induce cell lysis. The plate was allowed to incubate at room temperature for 20 min to stabilize luminescent signal.
# (§5) 10 μM Compound 121 in media was serially diluted 3.16-fold to achieve 9 dose levels. Similarly, 100 μM reference control in media was serially diluted 3.16-fold to prepare reference control solutions. 10 μL drug solution and 10 μL of reference control was dispensed into each well in plate B.
# (§6) Test plate B was incubated for 72 h in a humidified incubator at 37° C. in the presence of 5% CO2 and then subjected to CTG assay. The plate was allowed to equilibrate at room temperature for about 30 min. 50 μL of CellTiter-Glo was added to each well and the contents were mixed for 5 min on an orbital shaker to induce cell lysis. The plate was allowed to incubate at room temperature for 20 min to stabilize luminescent signal.
# (§7) IC50 and GI50 values for each of the 50 cell lines are presented in Table 6 and were calculated based on the dose-response curves depicted in FIGS. 1-50. The dose-response curves were fitted using nonlinear regression model with a sigmoidal dose response. The formula for calculating survival rate was calculated by the formula:
# (§8) Survival rate (%)=(LumTest article−LumMedium control)/(LumNone treated−LumMedium control)×100.
# KYSE-150 cells = test: CellTiter-Glo cell viability, KYSE-150
# Experimental: as §1, §2, §3, §4, §5, §6, §7, §8
# HT-1080 cells = test: CellTiter-Glo cell viability, HT-1080
# Experimental: as §1, §2, §3, §4, §5, §6, §7, §8
# KP4 cells = test: CellTiter-Glo cell viability, KP4
# Experimental: as §1, §2, §3, §4, §5, §6, §7, §8
# RPMI 8226 cells = test: CellTiter-Glo cell viability, RPMI 8226
# Experimental: as §1, §2, §3, §4, §5, §6, §7, §8
# NCI-H226 cells = test: CellTiter-Glo cell viability, NCI-H226
# Experimental: as §1, §2, §3, §4, §5, §6, §7, §8
# HCT-116 cells = test: CellTiter-Glo cell viability, HCT-116
# Experimental: as §1, §2, §3, §4, §5, §6, §7, §8
# SK-OV-3 cells = test: CellTiter-Glo cell viability, SK-OV-3
# Experimental: as §1, §2, §3, §4, §5, §6, §7, §8
# NCI-H1155 cells = test: CellTiter-Glo cell viability, NCI-H1155
# Experimental: as §1, §2, §3, §4, §5, §6, §7, §8
# HUH-7 cells = test: CellTiter-Glo cell viability, HUH-7
# Experimental: as §1, §2, §3, §4, §5, §6, §7, §8
# K-562 cells = test: CellTiter-Glo cell viability, K-562
# Experimental: as §1, §2, §3, §4, §5, §6, §7, §8
# Raji cells = test: CellTiter-Glo cell viability, Raji
# Experimental: as §1, §2, §3, §4, §5, §6, §7, §8
# Molt-4 cells = test: CellTiter-Glo cell viability, Molt-4
# Experimental: as §1, §2, §3, §4, §5, §6, §7, §8
# BT474 cells = test: CellTiter-Glo cell viability, BT474
# Experimental: as §1, §2, §3, §4, §5, §6, §7, §8
# PC-3 cells = test: CellTiter-Glo cell viability, PC-3
# Experimental: as §1, §2, §3, §4, §5, §6, §7, §8
# SK-MEL-28 cells = test: CellTiter-Glo cell viability, SK-MEL-28
# Experimental: as §1, §2, §3, §4, §5, §6, §7, §8
# 22Rv1 cells = test: CellTiter-Glo cell viability, 22Rv1
# Experimental: as §1, §2, §3, §4, §5, §6, §7, §8
# A2058 cells = test: CellTiter-Glo cell viability, A2058
# Experimental: as §1, §2, §3, §4, §5, §6, §7, §8
# SCC-4 cells = test: CellTiter-Glo cell viability, SCC-4
# Experimental: as §1, §2, §3, §4, §5, §6, §7, §8
# EBC-1 cells = test: CellTiter-Glo cell viability, EBC-1
# Experimental: as §1, §2, §3, §4, §5, §6, §7, §8
# A-673 cells = test: CellTiter-Glo cell viability, A-673
# Experimental: as §1, §2, §3, §4, §5, §6, §7, §8
# [1] = top conc. 10 μM Compound 121, 100 μM cisplatin
smiles,measurement,setting,value
"N.N.[Cl][Pt][Cl] [Cisplatin, reference compound]",GI50,SW579 cells; read-out: Absolute GI50,1.83 µM
same,IC50,SW579 cells; read-out: Absolute IC50,2.24 µM
same,% inhibition at top conc.,SW579 cells; [1],99.88%
same,GI50,KYSE-150 cells; read-out: Absolute GI50,6.26 µM
same,IC50,KYSE-150 cells; read-out: Absolute IC50,8.14 µM
same,% inhibition at top conc.,KYSE-150 cells; [1],91.28%
same,GI50,HT-1080 cells; read-out: Absolute GI50,1.98 µM
same,IC50,HT-1080 cells; read-out: Absolute IC50,2.22 µM
same,% inhibition at top conc.,HT-1080 cells; [1],99.59%
same,GI50,KP4 cells; read-out: Absolute GI50,6.87 µM
same,IC50,KP4 cells; read-out: Absolute IC50,8.8 µM
same,% inhibition at top conc.,KP4 cells; [1],98.30%
same,GI50,RPMI 8226 cells; read-out: Absolute GI50,2.38 µM
same,IC50,RPMI 8226 cells; read-out: Absolute IC50,3.62 µM
same,% inhibition at top conc.,RPMI 8226 cells; [1],99.76%
same,GI50,NCI-H226 cells; read-out: Absolute GI50,5.72 µM
same,IC50,NCI-H226 cells; read-out: Absolute IC50,7.36 µM
same,% inhibition at top conc.,NCI-H226 cells; [1],94.81%
same,GI50,HCT-116 cells; read-out: Absolute GI50,4.14 µM
same,IC50,HCT-116 cells; read-out: Absolute IC50,4.35 µM
same,% inhibition at top conc.,HCT-116 cells; [1],95.29%
same,GI50,SK-OV-3 cells; read-out: Absolute GI50,5.08 µM
same,IC50,SK-OV-3 cells; read-out: Absolute IC50,6.69 µM
same,% inhibition at top conc.,SK-OV-3 cells; [1],81.79%
same,GI50,NCI-H1155 cells; read-out: Absolute GI50,1.52 µM
same,IC50,NCI-H1155 cells; read-out: Absolute IC50,1.75 µM
same,% inhibition at top conc.,NCI-H1155 cells; [1],90.61%
same,GI50,HUH-7 cells; read-out: Absolute GI50,2.61 µM
same,IC50,HUH-7 cells; read-out: Absolute IC50,3.54 µM
same,% inhibition at top conc.,HUH-7 cells; [1],93.92%
same,GI50,K-562 cells; read-out: Absolute GI50,4.21 µM
same,IC50,K-562 cells; read-out: Absolute IC50,4.51 µM
same,% inhibition at top conc.,K-562 cells; [1],97.94%
same,GI50,Raji cells; read-out: Absolute GI50,1.74 µM
same,IC50,Raji cells; read-out: Absolute IC50,1.97 µM
same,% inhibition at top conc.,Raji cells; [1],94.98%
same,GI50,Molt-4 cells; read-out: Absolute GI50,0.61 µM
same,IC50,Molt-4 cells; read-out: Absolute IC50,0.71 µM
same,% inhibition at top conc.,Molt-4 cells; [1],99.96%
same,GI50,BT474 cells; read-out: Absolute GI50,39.3 µM
same,IC50,BT474 cells; read-out: Absolute IC50,45.1 µM
same,% inhibition at top conc.,BT474 cells; [1],59.96%
same,GI50,PC-3 cells; read-out: Absolute GI50,4.68 µM
same,IC50,PC-3 cells; read-out: Absolute IC50,5.94 µM
same,% inhibition at top conc.,PC-3 cells; [1],83.88%
same,GI50,SK-MEL-28 cells; read-out: Absolute GI50,7.09 µM
same,IC50,SK-MEL-28 cells; read-out: Absolute IC50,8.9 µM
same,% inhibition at top conc.,SK-MEL-28 cells; [1],99.29%
same,GI50,22Rv1 cells; read-out: Absolute GI50,1.88 µM
same,IC50,22Rv1 cells; read-out: Absolute IC50,3.07 µM
same,% inhibition at top conc.,22Rv1 cells; [1],98.28%
same,GI50,A2058 cells; read-out: Absolute GI50,2.38 µM
same,IC50,A2058 cells; read-out: Absolute IC50,3.11 µM
same,% inhibition at top conc.,A2058 cells; [1],99.85%
same,GI50,SCC-4 cells; read-out: Absolute GI50,3.43 µM
same,IC50,SCC-4 cells; read-out: Absolute IC50,4.15 µM
same,% inhibition at top conc.,SCC-4 cells; [1],99.29%
same,GI50,EBC-1 cells; read-out: Absolute GI50,11.8 µM
same,IC50,EBC-1 cells; read-out: Absolute IC50,17.3 µM
same,% inhibition at top conc.,EBC-1 cells; [1],84.49%
same,GI50,A-673 cells; read-out: Absolute GI50,0.4 µM
same,IC50,A-673 cells; read-out: Absolute IC50,1.12 µM
same,% inhibition at top conc.,A-673 cells; [1],99.59%
